This passage reports IC50 results from PMC5776727 (Bioorganic & medicinal chemistry letters, 2015).

Structures are written as SMILES.

For the assay, the target named is CXCR4 (Homo sapiens, UniProt P61073). As to the kind of experiment: inhibition of CXCL12. It counts as cell-based. The following applies: read-out: SDF-1 Ca2+ Flux CEM-1 IC50; SDF-1 induced calcium release; duplicate. On the technique in general: A change in cytosolic calcium serves as a functional read-out for many receptors and channels.
CXCR4, sequence (P61073 whole entry): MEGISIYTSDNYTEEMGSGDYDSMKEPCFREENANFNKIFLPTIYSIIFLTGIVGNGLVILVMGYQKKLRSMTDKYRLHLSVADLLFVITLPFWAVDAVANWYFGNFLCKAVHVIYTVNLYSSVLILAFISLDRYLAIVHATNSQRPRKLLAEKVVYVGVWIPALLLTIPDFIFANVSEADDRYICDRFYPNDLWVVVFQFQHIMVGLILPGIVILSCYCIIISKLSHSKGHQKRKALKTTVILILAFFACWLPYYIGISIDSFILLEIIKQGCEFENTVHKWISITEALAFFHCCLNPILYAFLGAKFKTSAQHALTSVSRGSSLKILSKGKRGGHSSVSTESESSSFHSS

For orientation: IC50 means the concentration needed to halve the response being measured. Turning to `NCCCCN(C[C@H]1CN(C(=O)Nc2ccccc2)CCN1)[C@H]1CCCc2cccnc21` [Compound 57a], the IC50 is 21 µM.
